The values that follow come from US10870638B2, “Pyridazinone compound or its salt, and herbicide containing it” (ISHIHARA SANGYO KAISHA, LTD., priority 2016, dated 2020).

Holding throughout (assay type): in vivo
What all share (settings): active ingredient amount 31 g/ha, 14th day after application

Experiment [1] concerns barnyardgrass (Echinochloa crus-qalli L.). Description: Test Example 1: foliar treatment, growth inhibition rate on 14th day. The procedure, abridged:
(§1)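 Using a small sprayer, formulated compound in water (0.1 vol % surfactant, 1,000 L/ha) was applied to seedlings grown from seed in upland soil. Fourteen days on, growth state was observed and expressed as percent inhibition from 0 to 100.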

Experiment [2] relates to crabgrass (Digitaria sanquinalis L.). Described as above. A digest of the protocol:
as §1

Experiment [3] concerns italian ryegrass (Lolium multiflorum Lam.). The experiment is described as above. The procedure, abridged: as §1
For experiment [4], the system named is wild oat (Avena fatua L.). The description is as above. The procedure, abridged:
(§2)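 Growth inhibition rates (%) come from visual observation on the 14th day following a single foliar application. Soybean was sprayed at the primary leaf stage, rice at 0.2–2.7 leaves, wild oat at 0.4–1.2, green foxtail at 0.5–3.2.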

For experiment [5], the system named is green foxtail (Setaria viridis L.). The experiment is described as above. A digest of the protocol: as §2
Experiment [6] concerns redroot pigweed (Amaranthus retroflexus L.). The experiment is described as above. The procedure, abridged: as §1
Experiment [7] relates to soybean (Glycine max Merr.). Described as above. A digest of the protocol:
as §2

Experiment [8] relates to rice (Oryza sativa L.). The description is as above. The procedure, abridged:
as §2

In experiment [9] the test system is corn (Zea mays L.). The experiment is described as above. The procedure, abridged:
as §1

For experiment [10], the system named is wheat (Triticum aestivum L.). Described as above. A digest of the protocol: as §1
Experiment [11] has as its system barnyardgrass (Echinochloa crus-qalli L.). Briefly: Test Example 2: soil application on the day after sowing, growth inhibition rate on 14th day. The procedure, abridged: (§3)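 Pre-emergence soil spray, day after sowing; WP or EC formulations diluted to 1,000 L/ha water at set a.i. rates. Visual growth inhibition %, 0 = untreated, 100 = complete kill, read at day 14.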

Experiment [12] relates to green foxtail (Setaria viridis L.). The experiment is described as above. A digest of the protocol:
as §3

Experiment [13] concerns redroot pigweed (Amaranthus retroflexus L.). The description is as above. The procedure, abridged: as §3
In experiment [14] the test system is velvetleaf (Abutilon theophrasti MEDIC.). The description is as above. A digest of the protocol: as §3
In experiment [15] the test system is soybean (Glycine max Merr.). The description is as above. A digest of the protocol:
as §3

Experiment [16] has as its system rice (Oryza sativa L.). Described as above. A digest of the protocol: as §3
The test system of experiment [17] is crabgrass (Digitaris sanquinalis L.). The experiment is described as above. A digest of the protocol: as §3
The subject of experiment [18] is corn (Zea mays L.). The experiment is described as above. The procedure, abridged: as §3
The subject of experiment [19] is prickly sida (Sida spinosa L.). Described as above. The procedure, abridged:
as §3

For experiment [20], the system named is wheat (Triticum aestivum L.). The experiment is described as above. The procedure, abridged: as §3
Setting [21] is: visual, 0 = non-treated, 100 = complete kill.

As to `CCc1nn(C)c(=O)c(-c2cc(Oc3cnc4cc(Cl)ccc4n3)ccc2C)c1O` [Compound 3-34], the “Growth inhibition rate (%) Barnyardgrass” value in experiment [1] is 100%; in experiment [11] it was 99%. In addition, the “Growth inhibition rate (%) Crabgrass” value in [2] came to 95%; in experiment [17] it was 65%. In addition, the “Growth inhibition rate (%) Italian ryegrass” value in [3] is recorded as 99%. Further, the “Growth inhibition rate (%) Wild oat” value in experiment [4] came to 95%. Further, the “Growth inhibition rate (%) Green foxtail” value in [5] is 100%; in experiment [12], 98%. In addition, the “Growth inhibition rate (%) Redroot pigweed” value in [6] and in experiment [13] was 0% in each case. Besides, the “Growth inhibition rate (%) Soybean” value in [7] was 30%; in [15], 0%. Further, the “Growth inhibition rate (%) Rice” value amounted to 90% in the experiment with rice (Oryza sativa L.) [8] and 20% in the experiment on rice (Oryza sativa L.) [16]. In addition, the “Growth inhibition rate (%) Corn” value is on record as 15% in the experiment on corn (Zea mays L.) [9] and 20% in the experiment with corn (Zea mays L.) [18]. In addition, the “Growth inhibition rate (%) Wheat” value in [10] turned out to be 90%; in experiment [20], 0%. Also, the “Growth inhibition rate (%) Velvetleaf” value in experiment [14] was determined as 0%. The “Growth inhibition rate (%) Prickly sida” value in experiment [19] is recorded as 0%.
With `COCOc1c(C)nn(C)c(=O)c1-c1cc(Oc2cnc3cc(Cl)ccc3n2)ccc1C` [Compound 3-40], the “Growth inhibition rate (%) Barnyardgrass” value in experiment [1] turned out to be 99%; in experiment [11] it was 90%. For the same compound, the “Growth inhibition rate (%) Crabgrass” value in experiment [2] amounted to 99%; in experiment [17], 10%. Also, the “Growth inhibition rate (%) Italian ryegrass” value in experiment [3] was 98%. The “Growth inhibition rate (%) Wild oat” value in [4] is listed as 98%. The “Growth inhibition rate (%) Green foxtail” value in experiment [5] is listed as 99%; in experiment [12], 40%. The “Growth inhibition rate (%) Redroot pigweed” value in experiment [6] and in experiment [13] was 0% in each case. Further, the figures for the “Growth inhibition rate (%) Soybean” value in experiment [7] and in experiment [15] were 10% and 0%, respectively. Also, the “Growth inhibition rate (%) Rice” value with rice (Oryza sativa L.) [8] came out at 85%; in the experiment with rice (Oryza sativa L.) [16], 10%. For the same compound, the “Growth inhibition rate (%) Corn” value in the experiment with corn (Zea mays L.) [9] worked out at 25%; in the experiment with corn (Zea mays L.) [18], 10%. The “Growth inhibition rate (%) Wheat” value in [10] is reported as 98%; in [20] it was 0%. Moreover, in [14], the “Growth inhibition rate (%) Velvetleaf” value came out at 0%. Further, the “Growth inhibition rate (%) Prickly sida” value in [19] worked out at 0%.
In the case of `COCC(=O)Oc1c(C)nn(C)c(=O)c1-c1cc(Oc2cnc3cc(Cl)ccc3n2)ccc1C` [Compound 3-45], the figures for the “Growth inhibition rate (%) Barnyardgrass” value in experiment [1] (setting [21]) and in experiment [11] were 100% and 95%, respectively. Further, the “Growth inhibition rate (%) Crabgrass” value in experiment [2] (setting [21]) was 99%; in [17], 20%. In addition, the “Growth inhibition rate (%) Italian ryegrass” value in [3] (setting [21]) amounted to 100%. Moreover, the “Growth inhibition rate (%) Wild oat” value in [4] (setting [21]) came out at 100%. Further, the “Growth inhibition rate (%) Green foxtail” value in experiment [5] (setting [21]) is reported as 99%; in experiment [12] it was 85%. For the same compound, the “Growth inhibition rate (%) Redroot pigweed” value in experiment [6] (setting [21]) and in experiment [13] was 0% each time. For the same compound, the “Growth inhibition rate (%) Soybean” value in [7] (setting [21]) is reported as 25%; in experiment [15], 0%. For the same compound, the “Growth inhibition rate (%) Rice” value was found to be 98% in the experiment with rice (Oryza sativa L.) [8] (setting [21]) and 25% with rice (Oryza sativa L.) [16]. Also, the results for the “Growth inhibition rate (%) Corn” value with corn (Zea mays L.) [9] (setting [21]) and in the experiment on corn (Zea mays L.) [18] were 45% and 0%, respectively. The “Growth inhibition rate (%) Wheat” value in experiment [10] (setting [21]) turned out to be 98%; in [20] it was 0%. In [14], the “Growth inhibition rate (%) Velvetleaf” value was 0%. In addition, the “Growth inhibition rate (%) Prickly sida” value in experiment [19] was 0%.
As for `Cc1ccc(Oc2cnc3cc(Cl)ccc3n2)cc1-c1c(OC(=O)COc2ccccc2)c(C)nn(C)c1=O` [Compound 3-48], the “Growth inhibition rate (%) Barnyardgrass” value was found to be 100% in experiment [1] (setting [21]) and 98% in experiment [11]. Also, the “Growth inhibition rate (%) Crabgrass” value in experiment [2] (setting [21]) came to 98%; in experiment [17] it was 60%. The “Growth inhibition rate (%) Italian ryegrass” value in experiment [3] (setting [21]) was found to be 95%. In addition, in [4] (setting [21]), the “Growth inhibition rate (%) Wild oat” value amounted to 75%. The “Growth inhibition rate (%) Green foxtail” value in experiment [5] (setting [21]) and in [12] was 100% throughout. For the same compound, the “Growth inhibition rate (%) Redroot pigweed” value in experiment [6] (setting [21]) and in [13] was 0% throughout. Further, the “Growth inhibition rate (%) Soybean” value in experiment [7] (setting [21]) was 10%; in experiment [15] it was 0%. For the same compound, the “Growth inhibition rate (%) Rice” value in the experiment with rice (Oryza sativa L.) [8] (setting [21]) and with rice (Oryza sativa L.) [16] was 0% in each case. Besides, the “Growth inhibition rate (%) Corn” value with corn (Zea mays L.) [9] (setting [21]) is recorded as 25%; in the experiment on corn (Zea mays L.) [18], 0%. The “Growth inhibition rate (%) Wheat” value in [10] (setting [21]) was determined as 90%; in experiment [20], 20%. Besides, in experiment [14], the “Growth inhibition rate (%) Velvetleaf” value came out at 0%. Besides, the “Growth inhibition rate (%) Prickly sida” value in [19] worked out at 0%.
For `C=CC(=O)Oc1c(C)nn(C)c(=O)c1-c1cc(Oc2cnc3cc(Cl)ccc3n2)ccc1C` [Compound 3-49], the “Growth inhibition rate (%) Barnyardgrass” value in experiment [1] (setting [21]) was found to be 99%; in experiment [11] it was 95%. Also, the “Growth inhibition rate (%) Crabgrass” value in [2] (setting [21]) turned out to be 100%; in experiment [17], 20%. In [3] (setting [21]), the “Growth inhibition rate (%) Italian ryegrass” value stood at 100%. Moreover, in experiment [4] (setting [21]), the “Growth inhibition rate (%) Wild oat” value was 98%. Also, the “Growth inhibition rate (%) Green foxtail” value in experiment [5] (setting [21]) was found to be 100%; in experiment [12], 85%. Moreover, the “Growth inhibition rate (%) Redroot pigweed” value in experiment [6] (setting [21]) and in experiment [13] was 0% each time. For the same compound, the “Growth inhibition rate (%) Soybean” value is 20% in experiment [7] (setting [21]) and 0% in experiment [15]. Also, the entries for the “Growth inhibition rate (%) Rice” value in the experiment on rice (Oryza sativa L.) [8] (setting [21]) and in the experiment on rice (Oryza sativa L.) [16] were 50% and 0%, respectively. Moreover, the “Growth inhibition rate (%) Corn” value in the experiment on corn (Zea mays L.) [9] (setting [21]) is 45%; with corn (Zea mays L.) [18], 0%. Moreover, the “Growth inhibition rate (%) Wheat” value in [10] (setting [21]) is 99%; in experiment [20], 10%. The “Growth inhibition rate (%) Velvetleaf” value in experiment [14] is reported as 0%. For the same compound, the “Growth inhibition rate (%) Prickly sida” value in experiment [19] is 0%.
For `CSCCC(=O)Oc1c(C)nn(C)c(=O)c1-c1cc(Oc2cnc3cc(Cl)ccc3n2)ccc1C` [Compound 3-50], the entries for the “Growth inhibition rate (%) Barnyardgrass” value in experiment [1] (setting [21]) and in experiment [11] were 100% and 99%, respectively. Further, the “Growth inhibition rate (%) Crabgrass” value in [2] (setting [21]) came out at 98%; in [17], 80%. Further, the “Growth inhibition rate (%) Italian ryegrass” value in experiment [3] (setting [21]) is listed as 93%. In addition, in [4] (setting [21]), the “Growth inhibition rate (%) Wild oat” value was 98%. Further, the “Growth inhibition rate (%) Green foxtail” value in experiment [5] (setting [21]) was 100%; in experiment [12], 98%. The “Growth inhibition rate (%) Redroot pigweed” value in [6] (setting [21]) and in experiment [13] was 0% each time. Besides, the “Growth inhibition rate (%) Soybean” value in [7] (setting [21]) came to 10%; in experiment [15] it was 0%. For the same compound, the “Growth inhibition rate (%) Rice” value in the experiment on rice (Oryza sativa L.) [8] (setting [21]) was found to be 60%; with rice (Oryza sativa L.) [16], 0%. Moreover, the “Growth inhibition rate (%) Corn” value was 15% in the experiment on corn (Zea mays L.) [9] (setting [21]) and 0% in the experiment on corn (Zea mays L.) [18]. Moreover, the “Growth inhibition rate (%) Wheat” value in experiment [10] (setting [21]) amounted to 99%; in experiment [20], 0%. Besides, in [14], the “Growth inhibition rate (%) Velvetleaf” value is recorded as 0%. Also, the “Growth inhibition rate (%) Prickly sida” value in [19] was 0%.
